# According to publication PMC9128629, “Identification and Characterization of Bifunctional Drimenol Synthases of Marine Bacterial Origin” (ACS Chemical Biology, 2022):
# Columns and labels:
# Format in all cases: biochemical
# [1] = molecular target: T1, AsDMS (Aquimarina spongiae drimenol synthase) (Aquimarina spongiae, UniProt A0A1M6CXF0); experiment: GC-MS detection of drimenol; settings: 50 mM Tris-HCl pH 8.0, 2 mM MgCl2, 1 mM DTT, 100 μM FPP, 200 nM enzyme, 30 °C, 1 h, with or without alkaline phosphatase
# T1 construct: gene SAMN04488508_102320
# T1 sequence (A0A1M6CXF0 entry or part of it): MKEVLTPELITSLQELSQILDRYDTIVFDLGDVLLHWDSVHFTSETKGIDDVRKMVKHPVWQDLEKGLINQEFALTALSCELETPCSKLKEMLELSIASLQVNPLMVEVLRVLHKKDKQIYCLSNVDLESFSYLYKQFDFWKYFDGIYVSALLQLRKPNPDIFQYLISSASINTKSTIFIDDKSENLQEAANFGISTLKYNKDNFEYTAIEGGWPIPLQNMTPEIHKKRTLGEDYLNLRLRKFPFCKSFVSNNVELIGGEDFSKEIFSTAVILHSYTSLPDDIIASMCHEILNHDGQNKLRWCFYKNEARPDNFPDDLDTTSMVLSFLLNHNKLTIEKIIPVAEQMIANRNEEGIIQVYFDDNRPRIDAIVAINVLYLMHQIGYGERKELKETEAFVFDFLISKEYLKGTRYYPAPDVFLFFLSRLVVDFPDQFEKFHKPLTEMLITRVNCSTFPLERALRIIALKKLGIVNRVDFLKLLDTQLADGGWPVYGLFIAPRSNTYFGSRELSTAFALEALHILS
# [2] = molecular target: T1, AsDMS (Aquimarina spongiae drimenol synthase); experiment: GC-MS quantification of drimenol, Michaelis-Menten fit; settings: 50 mM Tris-HCl pH 8.0, 2 mM MgCl2, 1 mM DTT, 0-120 μM FPP, 200 nM enzyme, 30 °C
# [3] = molecular target: T1, AsDMS (Aquimarina spongiae drimenol synthase); experiment: GC-MS detection of drimenol; settings: 50 mM Tris-HCl pH 8.0, 2 mM MgCl2, 1 mM DTT, 100 μM FPP, 200 nM enzyme, 30 °C, 1 h, with or without alkaline phosphatase; remark: listed apart in the source
# [4] = molecular target: T2, AsDMS (Aquimarina spongiae drimenol synthase) (Aquimarina spongiae, UniProt A0A1M6CXF0, D182N/K183D, form not given); experiment: GC-MS detection of drimenol; settings: 50 mM Tris-HCl pH 8.0, 2 mM MgCl2, 1 mM DTT, 100 μM FPP, 200 nM enzyme, 30 °C, 1 h, with or without alkaline phosphatase
# T2 construct: gene SAMN04488508_102320
# T2 sequence (A0A1M6CXF0 entry or part of it D182N/K183D, form open): as the sequence (A0A1M6CXF0 entry or part of it) above, with D182N, K183D counted along it
# [5] = molecular target: T3, FeDMS (Flavivirga eckloniae, UniProt A0A2K9PVZ9); experiment: GC-MS detection of drimenol; settings: 50 mM Tris-HCl pH 8.0, 2 mM MgCl2, 1 mM DTT, 100 μM FPP, 500 nM enzyme, 30 °C, 1 h, with or without alkaline phosphatase
# T3 construct: gene C1H87_21965
# T3 sequence (A0A2K9PVZ9 entry or part of it): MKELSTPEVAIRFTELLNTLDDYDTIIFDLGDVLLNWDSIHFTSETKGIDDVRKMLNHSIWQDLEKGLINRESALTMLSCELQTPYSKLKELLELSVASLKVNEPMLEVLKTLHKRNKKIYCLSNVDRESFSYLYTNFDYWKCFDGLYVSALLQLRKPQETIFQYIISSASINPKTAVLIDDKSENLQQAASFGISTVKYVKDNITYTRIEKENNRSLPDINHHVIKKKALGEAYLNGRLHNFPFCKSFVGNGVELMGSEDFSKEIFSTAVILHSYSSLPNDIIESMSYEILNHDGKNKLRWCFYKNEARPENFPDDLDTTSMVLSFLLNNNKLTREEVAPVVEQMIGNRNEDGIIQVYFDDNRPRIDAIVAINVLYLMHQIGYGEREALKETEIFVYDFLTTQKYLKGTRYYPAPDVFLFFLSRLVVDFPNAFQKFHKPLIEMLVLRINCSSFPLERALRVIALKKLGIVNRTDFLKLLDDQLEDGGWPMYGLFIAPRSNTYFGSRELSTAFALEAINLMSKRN
compound,measurement,setting,value
CC(C)=CCC/C(C)=C/CC/C(C)=C/CO[P@@](=O)(O)OP(=O)(O)O [FPP],GC-MS detection of drimenol,[1],exhibited almost equipotent activity to that of the WT
same,Km,[2],9.59 ± 2.15 µM
same,GC-MS detection of drimenol,[3],The D196N mutant displayed a significant decrease in activity
same,GC-MS detection of drimenol,[4],a double mutant D196N/K197D
same,GC-MS detection of drimenol,[5],"five proteins (AsDMS, A474DMS, A119DMS, FeDMS, and RbDMS) with FPP yielded a single compound"
